# Active and inactive are the calls of the source. The rule behind the calls is not given here.
# How the values were obtained:
# [1] = target: T1, Histone deacetylase 1 (Homo sapiens, UniProt Q13547); test: Inhibition of HDAC1 (unknown origin)
# [2] = target: T2, Histone deacetylase 2 (Homo sapiens, UniProt Q92769); test: Inhibition of HDAC2 (unknown origin)
# [3] = target: T3, Histone deacetylase 3 (Homo sapiens, UniProt O15379); test: Inhibition of HDAC3 (unknown origin)
# [4] = target: Histone deacetylase 4 (Homo sapiens, UniProt P56524); test: Inhibition of HDAC4 (unknown origin)
# Chain of Histone deacetylase 4 (P56524 whole entry): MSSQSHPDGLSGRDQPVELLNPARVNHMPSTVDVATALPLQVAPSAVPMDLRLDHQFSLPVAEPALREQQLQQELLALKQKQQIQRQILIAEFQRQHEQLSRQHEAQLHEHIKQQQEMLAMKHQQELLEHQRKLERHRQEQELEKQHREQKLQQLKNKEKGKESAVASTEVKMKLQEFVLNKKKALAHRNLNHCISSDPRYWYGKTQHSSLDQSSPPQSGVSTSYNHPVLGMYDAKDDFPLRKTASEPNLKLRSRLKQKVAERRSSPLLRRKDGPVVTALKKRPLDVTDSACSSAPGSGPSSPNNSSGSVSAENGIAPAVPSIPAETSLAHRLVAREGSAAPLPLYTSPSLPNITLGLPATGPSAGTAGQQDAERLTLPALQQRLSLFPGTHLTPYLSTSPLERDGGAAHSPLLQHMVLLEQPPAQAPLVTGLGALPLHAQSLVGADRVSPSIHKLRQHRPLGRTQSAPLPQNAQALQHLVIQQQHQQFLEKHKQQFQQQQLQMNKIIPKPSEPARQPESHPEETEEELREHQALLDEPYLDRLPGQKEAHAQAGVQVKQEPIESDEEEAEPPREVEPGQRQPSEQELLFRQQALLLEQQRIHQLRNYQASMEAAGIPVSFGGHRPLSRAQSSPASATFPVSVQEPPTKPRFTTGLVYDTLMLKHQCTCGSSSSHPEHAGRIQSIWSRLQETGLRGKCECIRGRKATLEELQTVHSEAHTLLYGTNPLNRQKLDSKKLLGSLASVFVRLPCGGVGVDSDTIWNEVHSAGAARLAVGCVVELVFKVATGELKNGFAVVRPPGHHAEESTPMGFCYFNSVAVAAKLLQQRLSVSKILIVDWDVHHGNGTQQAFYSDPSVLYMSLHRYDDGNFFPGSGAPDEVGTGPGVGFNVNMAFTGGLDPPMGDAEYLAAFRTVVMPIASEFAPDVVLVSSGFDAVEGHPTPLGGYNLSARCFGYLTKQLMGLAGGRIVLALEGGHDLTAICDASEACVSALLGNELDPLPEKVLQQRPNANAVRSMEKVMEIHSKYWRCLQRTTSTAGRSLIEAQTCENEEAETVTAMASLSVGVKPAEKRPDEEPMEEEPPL
# [5] = target: Histone deacetylase 5 (Homo sapiens, UniProt Q9UQL6); test: Inhibition of HDAC5 (unknown origin)
# Chain of Histone deacetylase 5 (Q9UQL6 whole entry): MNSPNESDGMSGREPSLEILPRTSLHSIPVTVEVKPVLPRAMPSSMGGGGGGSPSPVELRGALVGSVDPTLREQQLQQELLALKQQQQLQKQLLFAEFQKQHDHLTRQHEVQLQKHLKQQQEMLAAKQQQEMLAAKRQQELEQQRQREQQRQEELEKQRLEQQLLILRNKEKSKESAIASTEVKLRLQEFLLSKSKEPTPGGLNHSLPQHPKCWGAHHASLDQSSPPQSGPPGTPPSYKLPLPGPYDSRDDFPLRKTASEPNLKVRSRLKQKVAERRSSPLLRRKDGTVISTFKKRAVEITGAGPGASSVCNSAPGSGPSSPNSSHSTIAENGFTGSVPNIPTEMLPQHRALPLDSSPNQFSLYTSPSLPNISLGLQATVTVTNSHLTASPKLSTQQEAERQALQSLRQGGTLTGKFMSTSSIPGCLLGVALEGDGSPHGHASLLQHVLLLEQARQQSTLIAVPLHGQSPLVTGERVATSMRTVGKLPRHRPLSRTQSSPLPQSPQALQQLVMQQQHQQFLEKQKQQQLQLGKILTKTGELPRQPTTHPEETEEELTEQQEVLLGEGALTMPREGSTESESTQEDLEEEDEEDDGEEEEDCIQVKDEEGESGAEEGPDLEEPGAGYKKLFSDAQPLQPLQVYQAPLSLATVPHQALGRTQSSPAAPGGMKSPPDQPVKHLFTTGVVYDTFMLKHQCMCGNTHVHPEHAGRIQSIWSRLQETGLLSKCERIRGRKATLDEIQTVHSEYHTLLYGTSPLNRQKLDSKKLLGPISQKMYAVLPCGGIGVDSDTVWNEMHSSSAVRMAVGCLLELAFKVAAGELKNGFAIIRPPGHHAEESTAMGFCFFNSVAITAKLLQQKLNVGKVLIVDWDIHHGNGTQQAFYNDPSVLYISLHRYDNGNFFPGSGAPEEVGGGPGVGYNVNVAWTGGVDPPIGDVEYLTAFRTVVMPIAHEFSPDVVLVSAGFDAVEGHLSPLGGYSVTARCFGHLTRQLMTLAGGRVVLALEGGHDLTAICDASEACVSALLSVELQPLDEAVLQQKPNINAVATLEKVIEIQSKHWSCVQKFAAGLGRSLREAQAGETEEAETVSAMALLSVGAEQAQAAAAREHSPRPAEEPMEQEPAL
# [6] = target: T4, Protein deacetylase HDAC6 (Homo sapiens, UniProt Q9UBN7); test: Inhibition of HDAC6 (unknown origin)
# T4 sequence (Q9UBN7 whole entry): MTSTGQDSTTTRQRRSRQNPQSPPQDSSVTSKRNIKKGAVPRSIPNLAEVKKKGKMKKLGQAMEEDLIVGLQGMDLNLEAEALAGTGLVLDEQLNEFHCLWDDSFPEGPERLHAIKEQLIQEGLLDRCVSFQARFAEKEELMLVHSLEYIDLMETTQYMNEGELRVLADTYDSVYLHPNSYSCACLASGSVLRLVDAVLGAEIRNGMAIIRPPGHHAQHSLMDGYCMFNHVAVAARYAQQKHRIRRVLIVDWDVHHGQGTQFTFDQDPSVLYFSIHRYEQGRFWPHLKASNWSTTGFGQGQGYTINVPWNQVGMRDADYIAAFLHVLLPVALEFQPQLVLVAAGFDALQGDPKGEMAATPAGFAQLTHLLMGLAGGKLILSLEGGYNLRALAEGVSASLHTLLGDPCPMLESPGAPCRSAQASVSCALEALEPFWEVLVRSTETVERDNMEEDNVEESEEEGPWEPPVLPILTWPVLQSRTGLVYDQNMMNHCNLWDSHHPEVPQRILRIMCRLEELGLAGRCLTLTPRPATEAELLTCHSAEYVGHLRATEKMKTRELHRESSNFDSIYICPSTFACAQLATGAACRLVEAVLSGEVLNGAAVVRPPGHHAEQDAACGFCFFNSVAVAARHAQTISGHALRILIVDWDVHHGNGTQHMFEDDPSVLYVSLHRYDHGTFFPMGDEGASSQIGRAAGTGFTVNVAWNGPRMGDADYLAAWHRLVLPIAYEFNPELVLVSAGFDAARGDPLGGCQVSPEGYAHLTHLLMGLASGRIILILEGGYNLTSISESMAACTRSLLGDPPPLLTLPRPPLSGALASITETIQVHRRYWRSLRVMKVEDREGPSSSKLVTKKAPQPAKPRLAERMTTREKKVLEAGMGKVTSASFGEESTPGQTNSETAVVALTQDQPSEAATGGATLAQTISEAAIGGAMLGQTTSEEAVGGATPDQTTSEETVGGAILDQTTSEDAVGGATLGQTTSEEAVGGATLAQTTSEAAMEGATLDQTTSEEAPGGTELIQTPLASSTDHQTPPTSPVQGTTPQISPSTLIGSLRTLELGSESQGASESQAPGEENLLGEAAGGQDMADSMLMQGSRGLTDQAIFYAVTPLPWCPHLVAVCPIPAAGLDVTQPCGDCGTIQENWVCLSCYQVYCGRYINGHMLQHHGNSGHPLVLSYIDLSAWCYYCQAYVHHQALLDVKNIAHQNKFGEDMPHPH
# [7] = target: T5, Histone deacetylase 7 (Homo sapiens, UniProt Q8WUI4); test: Inhibition of HDAC7 (unknown origin)
# T5 sequence (Q8WUI4 whole entry): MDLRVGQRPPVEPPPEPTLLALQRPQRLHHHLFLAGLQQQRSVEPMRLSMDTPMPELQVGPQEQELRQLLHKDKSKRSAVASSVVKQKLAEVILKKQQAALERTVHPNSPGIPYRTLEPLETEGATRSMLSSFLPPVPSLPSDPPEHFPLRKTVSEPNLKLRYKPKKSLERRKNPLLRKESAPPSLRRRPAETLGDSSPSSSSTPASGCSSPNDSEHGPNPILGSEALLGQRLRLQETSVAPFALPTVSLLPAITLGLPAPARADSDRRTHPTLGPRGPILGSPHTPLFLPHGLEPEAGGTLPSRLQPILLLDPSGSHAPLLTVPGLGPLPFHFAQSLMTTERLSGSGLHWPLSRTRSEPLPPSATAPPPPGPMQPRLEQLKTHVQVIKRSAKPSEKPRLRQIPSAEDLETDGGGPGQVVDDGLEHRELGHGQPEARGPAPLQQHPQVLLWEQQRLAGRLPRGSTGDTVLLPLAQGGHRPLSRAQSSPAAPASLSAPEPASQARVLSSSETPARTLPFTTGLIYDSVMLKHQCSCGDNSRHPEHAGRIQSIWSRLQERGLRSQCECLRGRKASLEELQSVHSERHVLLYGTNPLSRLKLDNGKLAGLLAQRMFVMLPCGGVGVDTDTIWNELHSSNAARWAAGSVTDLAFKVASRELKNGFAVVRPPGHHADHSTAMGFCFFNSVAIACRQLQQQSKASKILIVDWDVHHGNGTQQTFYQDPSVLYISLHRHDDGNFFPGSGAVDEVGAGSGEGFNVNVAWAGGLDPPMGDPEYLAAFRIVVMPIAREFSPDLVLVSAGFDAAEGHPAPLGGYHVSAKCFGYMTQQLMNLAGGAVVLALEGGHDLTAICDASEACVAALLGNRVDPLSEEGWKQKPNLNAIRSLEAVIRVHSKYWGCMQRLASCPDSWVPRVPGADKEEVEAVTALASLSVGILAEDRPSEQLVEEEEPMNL
# [8] = target: T6, Histone deacetylase 8 (Homo sapiens, UniProt Q9BY41); test: Inhibition of HDAC8 (unknown origin)
# T6 sequence (Q9BY41 whole entry): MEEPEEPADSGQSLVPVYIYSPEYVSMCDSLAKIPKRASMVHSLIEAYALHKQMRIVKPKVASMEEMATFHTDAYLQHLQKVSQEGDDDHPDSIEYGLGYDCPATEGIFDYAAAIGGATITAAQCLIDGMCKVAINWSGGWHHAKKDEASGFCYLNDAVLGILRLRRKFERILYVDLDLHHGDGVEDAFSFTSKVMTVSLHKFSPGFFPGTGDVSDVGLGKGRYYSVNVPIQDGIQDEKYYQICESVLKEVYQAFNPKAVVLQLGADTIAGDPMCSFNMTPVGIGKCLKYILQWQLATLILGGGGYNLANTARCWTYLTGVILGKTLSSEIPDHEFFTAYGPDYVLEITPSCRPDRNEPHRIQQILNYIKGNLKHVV
# [9] = target: Histone deacetylase 9 (Homo sapiens, UniProt Q9UKV0); test: Inhibition of HDAC9 (unknown origin)
# Chain of Histone deacetylase 9 (Q9UKV0 whole entry): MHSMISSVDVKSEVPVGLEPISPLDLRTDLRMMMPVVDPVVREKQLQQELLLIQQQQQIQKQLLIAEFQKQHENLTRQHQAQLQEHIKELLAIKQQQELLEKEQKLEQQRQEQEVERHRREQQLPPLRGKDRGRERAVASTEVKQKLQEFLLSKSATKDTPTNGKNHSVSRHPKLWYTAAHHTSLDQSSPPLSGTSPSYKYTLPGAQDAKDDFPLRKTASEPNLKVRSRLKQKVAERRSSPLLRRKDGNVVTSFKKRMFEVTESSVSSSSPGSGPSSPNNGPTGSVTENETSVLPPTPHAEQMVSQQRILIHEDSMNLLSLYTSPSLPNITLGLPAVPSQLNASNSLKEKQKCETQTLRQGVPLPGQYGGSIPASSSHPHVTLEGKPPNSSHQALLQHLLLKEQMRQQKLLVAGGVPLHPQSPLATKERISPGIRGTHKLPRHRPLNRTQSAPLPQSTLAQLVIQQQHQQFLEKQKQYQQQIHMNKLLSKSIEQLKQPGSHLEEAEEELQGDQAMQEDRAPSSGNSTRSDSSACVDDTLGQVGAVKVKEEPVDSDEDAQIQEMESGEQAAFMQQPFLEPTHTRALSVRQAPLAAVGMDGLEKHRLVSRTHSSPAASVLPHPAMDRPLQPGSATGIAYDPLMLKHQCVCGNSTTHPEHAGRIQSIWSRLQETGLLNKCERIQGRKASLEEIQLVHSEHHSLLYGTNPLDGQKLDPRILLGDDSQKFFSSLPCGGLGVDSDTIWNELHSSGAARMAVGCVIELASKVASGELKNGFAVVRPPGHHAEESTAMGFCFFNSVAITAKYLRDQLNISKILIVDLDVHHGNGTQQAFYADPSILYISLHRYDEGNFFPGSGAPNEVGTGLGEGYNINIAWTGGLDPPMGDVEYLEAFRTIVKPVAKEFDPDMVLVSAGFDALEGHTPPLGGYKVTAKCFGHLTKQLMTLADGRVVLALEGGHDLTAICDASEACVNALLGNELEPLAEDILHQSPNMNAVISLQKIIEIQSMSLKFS
# [10] = target: T7, Polyamine deacetylase HDAC10 (Homo sapiens, UniProt Q969S8); test: Inhibition of HDAC10 (unknown origin)
# T7 sequence (Q969S8 whole entry): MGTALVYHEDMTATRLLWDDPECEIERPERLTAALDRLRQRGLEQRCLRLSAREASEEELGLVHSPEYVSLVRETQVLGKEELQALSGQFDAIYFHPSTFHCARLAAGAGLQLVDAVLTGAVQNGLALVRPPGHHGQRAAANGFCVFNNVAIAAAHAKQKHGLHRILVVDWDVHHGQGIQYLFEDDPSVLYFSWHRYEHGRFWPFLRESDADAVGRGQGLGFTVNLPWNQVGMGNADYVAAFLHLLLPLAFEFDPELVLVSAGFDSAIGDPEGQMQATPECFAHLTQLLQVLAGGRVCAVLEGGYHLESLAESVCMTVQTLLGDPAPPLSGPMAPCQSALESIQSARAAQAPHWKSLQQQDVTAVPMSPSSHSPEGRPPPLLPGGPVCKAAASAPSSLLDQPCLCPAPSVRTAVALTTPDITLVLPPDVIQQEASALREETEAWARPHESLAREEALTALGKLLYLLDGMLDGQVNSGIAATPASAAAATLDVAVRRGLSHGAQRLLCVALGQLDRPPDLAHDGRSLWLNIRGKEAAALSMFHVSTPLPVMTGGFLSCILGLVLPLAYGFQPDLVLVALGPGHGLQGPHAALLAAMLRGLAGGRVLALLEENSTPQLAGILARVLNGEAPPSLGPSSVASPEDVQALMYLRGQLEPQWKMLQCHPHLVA
# [11] = target: T8, Histone deacetylase 11 (Homo sapiens, UniProt Q96DB2); test: Inhibition of HDAC11 (unknown origin)
# T8 sequence (Q96DB2 whole entry): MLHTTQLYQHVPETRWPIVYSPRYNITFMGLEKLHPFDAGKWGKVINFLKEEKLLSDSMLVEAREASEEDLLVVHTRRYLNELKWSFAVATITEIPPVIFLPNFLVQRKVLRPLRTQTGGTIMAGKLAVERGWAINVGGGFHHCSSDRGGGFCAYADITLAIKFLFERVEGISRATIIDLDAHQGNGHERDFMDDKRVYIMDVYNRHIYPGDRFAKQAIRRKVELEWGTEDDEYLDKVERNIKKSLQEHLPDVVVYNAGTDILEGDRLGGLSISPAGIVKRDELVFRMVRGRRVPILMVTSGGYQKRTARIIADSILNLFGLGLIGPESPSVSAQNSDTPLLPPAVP
# [12] = system: MV4-11; test: Antiproliferative activity against human MV4-11 cells; format: functional, cell-based
# [13] = target: T1, Histone deacetylase 1; test: Competitive inhibition of HDAC1 (unknown origin) at 444 to 1500 nM by Lineweaver-Burk plot analysis; details: dose 444-1500 nM
# [14] = target: T2, Histone deacetylase 2; test: Competitive inhibition of HDAC2 (unknown origin) at 444 to 1500 nM by Lineweaver-Burk plot analysis; details: dose 444-1500 nM
# [15] = target: T3, Histone deacetylase 3; test: Competitive inhibition of HDAC3 (unknown origin) at 444 to 1500 nM by Lineweaver-Burk plot analysis; details: dose 444-1500 nM
# [16] = target: T1, Histone deacetylase 1; test: Inhibition of HDAC1 (unknown origin) preincubated for 5 mins
# [17] = target: T1, Histone deacetylase 1; test: Inhibition of HDAC1 (unknown origin) preincubated for 30 mins
# [18] = target: T1, Histone deacetylase 1; test: Inhibition of HDAC1 (unknown origin) preincubated for 60 mins
# [19] = target: T1, Histone deacetylase 1; test: Inhibition of HDAC1 (unknown origin) preincubated for 90 mins
# [20] = target: T1, Histone deacetylase 1; test: Inhibition of HDAC1 (unknown origin) preincubated for 120 mins
# [21] = target: T2, Histone deacetylase 2; test: Inhibition of HDAC2 (unknown origin) preincubated for 5 mins
# [22] = target: T2, Histone deacetylase 2; test: Inhibition of HDAC2 (unknown origin) preincubated for 30 mins
# [23] = target: T2, Histone deacetylase 2; test: Inhibition of HDAC2 (unknown origin) preincubated for 60 mins
# [24] = target: T2, Histone deacetylase 2; test: Inhibition of HDAC2 (unknown origin) preincubated for 90 mins
# [25] = target: T2, Histone deacetylase 2; test: Inhibition of HDAC2 (unknown origin) preincubated for 120 mins
# [26] = target: T3, Histone deacetylase 3; test: Inhibition of HDAC3 (unknown origin) preincubated for 5 mins
# [27] = target: T3, Histone deacetylase 3; test: Inhibition of HDAC3 (unknown origin) preincubated for 30 mins
# [28] = target: T3, Histone deacetylase 3; test: Inhibition of HDAC3 (unknown origin) preincubated for 60 mins
# [29] = target: T3, Histone deacetylase 3; test: Inhibition of HDAC3 (unknown origin) preincubated for 90 mins
# [30] = target: T3, Histone deacetylase 3; test: Inhibition of HDAC3 (unknown origin) preincubated for 120 mins
# [31] = target: T1, Histone deacetylase 1; test: Mixed-type inhibition of HDAC1 (unknown origin) at 17.8 to 60 nM by Lineweaver-Burk plot analysis; details: dose 17.8-60 nM
# [32] = target: T2, Histone deacetylase 2; test: Mixed-type inhibition of HDAC2 (unknown origin) at 17.8 to 60 nM by Lineweaver-Burk plot analysis; details: dose 17.8-60 nM
# [33] = target: T3, Histone deacetylase 3; test: Mixed-type inhibition of HDAC3 (unknown origin) at 17.8 to 60 nM by Lineweaver-Burk plot analysis; details: dose 17.8-60 nM
# [34] = target: T1, Histone deacetylase 1; test: Inhibition of HDAC1 (unknown origin) at 1 uM preincubated for 1 hr followed by 100-fold dilution and subsequent substrate addition measured after 1 hr; details: time 2.0 hrs
# [35] = target: T2, Histone deacetylase 2; test: Inhibition of HDAC2 (unknown origin) at 1 uM preincubated for 1 hr followed by 100-fold dilution and subsequent substrate addition measured after 1 hr; details: time 2.0 hrs
# [36] = target: T3, Histone deacetylase 3; test: Inhibition of HDAC3 (unknown origin) at 1 uM preincubated for 1 hr followed by 100-fold dilution and subsequent substrate addition measured after 1 hr; details: time 2.0 hrs
# [37] = target: Histone deacetylase (Homo sapiens) (UniProt Q13547+O15379+Q9UBN7+Q92769+Q9UQL6+Q8WUI4+Q9BY41+Q96DB2+P56524+Q9UKV0+Q969S8); test: Inhibition of HDAC in human MV4-11 cells assessed as histone H3 acetylation preincubated for 3 hrs followed by compound washout and measured after 6 hrs by Western blot analysis; format: cell-based
# T2 sequence (Q92769 whole entry): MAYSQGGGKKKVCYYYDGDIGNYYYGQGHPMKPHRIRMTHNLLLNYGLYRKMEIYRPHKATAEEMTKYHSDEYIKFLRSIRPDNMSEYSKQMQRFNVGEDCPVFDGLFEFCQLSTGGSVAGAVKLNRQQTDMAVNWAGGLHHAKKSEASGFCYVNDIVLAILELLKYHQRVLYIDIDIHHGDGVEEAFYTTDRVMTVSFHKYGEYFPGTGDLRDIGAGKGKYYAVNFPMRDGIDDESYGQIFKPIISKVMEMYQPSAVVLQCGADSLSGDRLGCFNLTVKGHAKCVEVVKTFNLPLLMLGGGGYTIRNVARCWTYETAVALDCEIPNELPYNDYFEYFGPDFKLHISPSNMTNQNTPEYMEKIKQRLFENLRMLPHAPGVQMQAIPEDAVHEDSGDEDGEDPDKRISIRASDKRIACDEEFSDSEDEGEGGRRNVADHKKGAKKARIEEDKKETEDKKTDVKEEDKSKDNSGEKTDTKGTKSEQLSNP
# T1 sequence (Q13547 whole entry): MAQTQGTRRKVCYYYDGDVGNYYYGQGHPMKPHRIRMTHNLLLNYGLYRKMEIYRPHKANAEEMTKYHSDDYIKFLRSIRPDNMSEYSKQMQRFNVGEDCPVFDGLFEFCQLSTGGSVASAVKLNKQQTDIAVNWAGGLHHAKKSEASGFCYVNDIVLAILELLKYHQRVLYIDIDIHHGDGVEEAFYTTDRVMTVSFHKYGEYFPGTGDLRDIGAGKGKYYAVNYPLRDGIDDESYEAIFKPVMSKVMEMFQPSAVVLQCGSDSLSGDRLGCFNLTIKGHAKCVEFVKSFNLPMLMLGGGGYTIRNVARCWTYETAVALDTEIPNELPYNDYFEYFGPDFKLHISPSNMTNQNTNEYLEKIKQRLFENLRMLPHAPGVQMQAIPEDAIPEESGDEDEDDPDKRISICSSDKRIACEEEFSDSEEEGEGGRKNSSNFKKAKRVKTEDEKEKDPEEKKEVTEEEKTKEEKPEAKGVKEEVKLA
# T3 sequence (O15379 whole entry): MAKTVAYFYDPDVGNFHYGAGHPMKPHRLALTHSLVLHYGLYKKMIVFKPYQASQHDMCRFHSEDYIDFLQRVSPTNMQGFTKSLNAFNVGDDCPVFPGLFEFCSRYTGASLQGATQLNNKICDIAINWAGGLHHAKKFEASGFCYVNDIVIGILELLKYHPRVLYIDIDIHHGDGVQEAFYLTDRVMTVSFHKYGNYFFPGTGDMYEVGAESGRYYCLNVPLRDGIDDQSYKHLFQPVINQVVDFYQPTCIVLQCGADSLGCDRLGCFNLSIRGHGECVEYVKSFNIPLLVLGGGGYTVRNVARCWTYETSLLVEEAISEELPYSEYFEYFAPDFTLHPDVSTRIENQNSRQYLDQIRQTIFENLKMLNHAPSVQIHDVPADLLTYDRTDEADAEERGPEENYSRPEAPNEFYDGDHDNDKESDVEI
Compound,IC50 [1] [nM],IC50 [2] [nM],IC50 [3] [nM],IC50 [4] [nM],IC50 [5] [nM],IC50 [6] [nM],IC50 [7] [nM],IC50 [8] [nM],IC50 [9] [nM],IC50 [10] [nM],IC50 [11] [nM],IC50 [12] [nM],IC50 [16] [nM],IC50 [17] [nM],IC50 [18] [nM],IC50 [19] [nM],IC50 [20] [nM],IC50 [21] [nM],IC50 [22] [nM],IC50 [23] [nM],further results
Nc1ccccc1NC(=O)CCCCCCC(=O)Nc1ccccc1,828,530,379,> 10000,> 10000,> 10000,> 10000,> 10000,> 10000,> 10000,> 10000,7240,944,910,1140,1220,1070,1160,1170,1170,inhibition [13]: Active; inhibition [14]: Active; inhibition [15]: Active; IC50 [24]: 1360 nM; IC50 [25]: 1270 nM; IC50 [26]: 659 nM; IC50 [27]: 559 nM; IC50 [28]: 535 nM; IC50 [29]: 391 nM; IC50 [30]: 463 nM
CCCNNC(=O)CCCCCCC(=O)Nc1ccccc1,45.2,125,20.3,> 10000,> 10000,> 10000,> 10000,> 10000,> 10000,> 10000,> 10000,587,176,89.2,62.9,41.8,48.4,406,304,214,inhibition [31]: Active; inhibition [32]: Active; inhibition [33]: Active; IC50 [24]: 163 nM; IC50 [25]: 146 nM; IC50 [26]: 58.2 nM; IC50 [27]: 30.1 nM; IC50 [28]: 22.9 nM; IC50 [29]: 17.2 nM; IC50 [30]: 17.7 nM; inhibition [34]: Active; inhibition [35]: Active; inhibition [36]: Active; inhibition [37]: Active
